Test [1] concerns MCF-7/HER2. Description: Cell viability MTT assay. The settings on record: Homo sapiens, MCF7. Type of test: cell-based. The method, then: (§1) Cell viabilities of the three BC cell lines of MCF-7, MCF-7/HER2, and SKBR-3 treated with Tynen®, the LsbMDDs, DNS-LsbMDDs, and HER2-LsbMDDs were evaluated by an MTT assay. Cells were seeded at a density of 5 × 10^4 cells per well in 24-well plates and incubated for 24 h at 37 °C with 5% CO2. Then, they were treated with different concentrations of the formulations for 4 h under the same conditions. After incubation for 48 h, 50 μL of MTT (6 mg/mL) was added to each well for 3 h. The medium was removed and 200 μL of DMSO was added to each well and gently shaken to dissolve any purple formazan crystal formations. The absorbance of each well was measured at 550 nm (BioTek, Winooski, VT).

The test system of test [2] is MCF-7. Description: Cell viability MTT assay. Type of test: cell-based. The settings on record: Homo sapiens, MCF7. How it is done: as §1
On the technique in general: Formazan colour is commonly taken as a measure of viable cells.

Values after ≈ are worked out from the molar mass of the structure shown.

By IC50 is commonly meant the midpoint of a concentration-inhibition curve. For `CC(=O)O[C@@]12CO[C@@H]1C[C@H](O)[C@@]1(C)C(=O)[C@H](O)C3=C(C)[C@@H](OC(=O)[C@H](O)[C@@H](NC(=O)OC(C)(C)C)c4ccccc4)C[C@@](O)([C@@H](OC(=O)c4ccccc4)[C@H]21)C3(C)C` [DTX, docetaxel], the IC50 in test [1] came to 0.052 µg/mL (≈ 0.0644 µM); in test [2], 0.763 µg/mL (≈ 0.944 µM).

For the origin of these results see paper PMC6058516, “Bispecific antibodies (anti-mPEG/anti-HER2) for active tumor targeting of docetaxel (DTX)-loaded mPEGylated nanocarriers to enhance the chemotherapeutic efficacy of HER2-overexpressing tumors” (Drug Delivery, 2018).
